Test system: AhR target genes
Test: Expression of known AhR target genes in Hepa1 cells (RT-qPCR)
Assay type: cell-based, mouse
Details: 10 nM, eight hours
Procedure: Supplementary file pone.0088726.s001.tif: Figure S1 10-Cl-BBQ induces the expression of known AhR target genes. Hepa1 cells were treated with 10-Cl-BBQ (10 nM), TCDD (10 nM), or vehicle (DMSO) for eight hours. RNA was extracted and RT-qPCR was performed for a select set of known AhR target genes. AHRR: aryl hydrocarbon receptor repressor, ALDH3A1: aldehyde dehydrogenase family 3; subfamily A1, CYP1b1: cytochrome P450 1b1; Gstm3: glutathione S-transferase, mu 3; GST-Ya: glutathione S transferase, alpha 1; NQO1: NAD(P)H dehydrogenase quinone 1; UGT2b34: UDP glucuronosyltransferase 2 family, polypeptide B34. (TIF) Click here for additional data file.

O=c1c2cccc3cccc(c32)c2nc3ccc(Cl)cc3n12 [10-Cl-BBQ, 10-chloro-7H-benzimidazo[2,1-a]benzo[de]isoquinolin-7-one]
induction of genes associated with AhR activation in hepatocytes: induced a battery of genes

Source: PMC3929365, “Benzimidazoisoquinolines: A New Class of Rapidly Metabolized Aryl Hydrocarbon Receptor (AhR) Ligands that Induce AhR-Dependent Tregs and Prevent Murine Graft-Versus-Host Disease” (PLoS ONE, 2014)
